Converted amounts (≈) assume the structure as drawn. “And” between values parts separate entries of the source, which are not always exact repeats. Equal values may be shown once. Read-outs that look alike come from different tables or passages of the source.
Key:
SK-GT-4 EAC cells = experiment: MTT proliferation assay, SK-GT-4 cells; type: cell-based; conditions: read-out: Antiproliferative activity IC50, SK-GT-4
Protocol: (§1) The FLO-1, SK-GT-4, and THP-1 cell lines were a gift from Dr. Shrikant Anant’s laboratory. Cells were grown in 10% fetal bovine serum (Fisher Scientific#FB12999102, Pittsburgh, PA, USA) and 1% antibiotic/antimycotic agent (Corning, Tewksbury, MA, USA) in RPMI 1640 media mixed with […] HEPES, L-glutamine (Corning, MA, USA). The cell lines were grown in a 5% CO2 incubator at 37 °C and used below 15 passages for the experiments.
(§2) The proliferation assay used a 3-(4,5-dimethylthiazol-2-yl)-2,5-diphenyltetrazolium bromide (MTT) assay. Briefly, 5000 FLO-1 and SK-GT-4 cells were counted and seeded in each well in 96-well plates. Post 24 h of incubation, EAC cells were treated with multiple concentrations (0–10 μM) of niclosamide (Cayman chemical#10649, Ann Arbor, MI, USA) and its analogs. At respective time points, 10 μL of stock MTT reagent (Millipore Sigma, Bedford, MA, USA) (3 mg/mL) was added to each well and incubated for 1–2 h under the dark at 37 °C. After incubation, the purple formazan crystals were dissolved in equal volumes of DMSO, and the absorbance of the resulting clear solutions was recorded at 570 nm using a microplate reader. A CCK-8 (Abcam, Cat no. ab228554, Burlingame, CA, USA) assay was used for the THP-1 cells. Briefly, 5000 cells were plated in every well of a 96-well plate. After 24 h of plating, THP-1 cells were treated with niclosamide and compound 3a. After the respective time point, an equal amount of CCK-8 reagent was pipetted to the wells and incubated for one hour in an incubator, and finally, the absorbance was recorded at 450 nm. The percent change in the proliferation was calculated by comparing the cell viability of the treated groups to the untreated control cells.

FLO-1 EAC cells = experiment: MTT proliferation assay, FLO-1 cells; type: cell-based; conditions: read-out: Antiproliferative activity IC50, FLO-1
Protocol: as §1, §2

[1] = system: M. mycetomatis MM55 strain; experiment: In vitro susceptibility testing (MTS), MM55 strain; type: cell-based, Madurella mycetomatis; conditions: for IC90: read-out: Antifungal activity IC90; for IC50: read-out: Antifungal activity IC50
Protocol: (§3) The antifungal activity of the compounds was tested against a geographically and genetically diverse set of M. mycetomatis isolates. These included the MM55 strain from Sudan, strains I1, I3, and […] from India, strain P1 from Mali, strain SO1 from Somalia, strain Peru72012 from Peru, and strain CBS247.48 whose country of origin was unknown. All isolates were originally obtained from patients and identified and maintained in the Erasmus Medical Centre, Rotterdam, The Netherlands. In vitro susceptibility testing was performed as reported previously. The only difference was that tetrazolium compound 3-(4,5-dimethylthiazol-2-yl)-5-(3-carboxymethoxyphenyl)-2-(4-sulfophenyl)-2H-tetrazolium salt (MTS) was used as a viability dye in endpoint reading instead of 2,3-bis-(2-methoxy-4-nitro-5-sulfophenyl)-2H-tetrazolium-5-carboxanilide salt (XTT).

M. mycetomatis strains = experiment: In vitro susceptibility testing (MIC), panel of eight strains; type: cell-based, Madurella mycetomatis; conditions: Madurella mycetomatis; for MIC50: concentration at which 50% of the eight isolates were completely inhibited
Protocol: as §3

[2] = system: Galleria mellonella larvae; experiment: Toxicity in healthy Galleria mellonella larvae; type: in vivo; conditions: 20 µM, 10 days
Protocol: (§4) In vivo efficacy was determined in larvae of the greater wax moth Galleria mellonella. Since G. mellonella is an invertebrate, it is not subject to directive 2010/63/EU of the European law on animal testing. Larvae were housed in the dark in Petri dishes with Whatman paper. To determine the toxicity in G. mellonella larvae, test compounds were injected on three consecutive days at 24 h intervals in the last pro-leg of healthy larvae followed by monitoring of the survival for ten days. If no significant difference between the control and treated larvae was observed, the compound was considered nontoxic. Larvae were further used in infection studies to determine the in vivo activity of test compounds against M. mycetomatis according to our previously published protocol.

[3] = system: M. mycetomatis MM55 strain; experiment: In vivo activity in M. mycetomatis-infected G. mellonella larvae; design: species or system Galleria mellonella; d10 AUC / d10 ΔAUC: unit not given here; conditions: 20 µM; for d10 AUC: area under the survival curve; for d10 Survival / d10 Survival Corrected with Control: day 10; for d10 ΔAUC: versus control
Protocol: as §4

Kinetic solubility = type: physicochemical; conditions: aqueous buffer
Protocol: Kinetic solubility was tested using 10 mM stock solutions of test compounds in DMSO followed by dilution with an aqueous buffer to a final concentration of 250 µM and vortexed at 900 rpm for 24 h. Then, the samples were filtered and analyzed by UHPLC (Shimadzu Nexera X2, Milton Keynes, UK).

CHI logD = type: physicochemical; conditions: reversed-phase UHPLC
Protocol: CHI (chromatographic hydrophobicity index) logD was determined according to previously published methods. Test compounds were prepared as 0.5 mM solutions in 50:50 acetonitrile/water and analyzed by reversed-phase UHPLC (wavelength 254 nm). By plotting the retention time of a set of reference compounds against known CHI values, the CHI value of test compounds was calculated according to their retention time, and this was then further converted to CHI logD.

Microsomal clearance = type: in vitro ADME; conditions: for half-life at 0.5 µM: female, CD1, pH 7.4, mouse liver microsomes, read-out: Microsomal T ½; for Microsomal Clearance: mouse liver microsomes, 0.5 µM
Protocol: Liver microsomes were applied to study the microsomal clearance of test compounds. The test compound (0.5 µM) was incubated with female CD1 mouse liver microsomes (0.5 mg/mL, 50 mM potassium phosphate buffer, pH 7.4), and the reaction started with the addition of excess NADPH (8 mg/mL, 50 mM potassium phosphate buffer, and pH 7.4). Immediately, at time 0, then at 3, 6, 9, 15, and 30 min, an aliquot of the incubation mixture was removed and mixed with acetonitrile to stop the reaction. An internal standard (IS) was added to all samples, the samples were centrifuged to sediment precipitated protein, and the plates were then sealed prior to UPLC-MSMS analysis (Xevo TQ-S Micro, Waters^TM, Milford, MA, USA). An exponential decay fit was created from the response ratio (compound peak area/IS peak area) and incubation time, and subsequently, Clint (mL/min/mg protein) was calculated by multiplying the rate constant (k) of the exponential decay curve and incubation conditions (incubation volume/mg protein added).

[4] = HepG2 hepatotoxicity, resazurin assay; type: cell-based; conditions: human, HepG2 hepatoma cells, two independent experiments
Protocol: (§5) HepG2 hepatoma cells were used for hepatotoxicity studies. Cells were provided by ECACC with a certificate of analysis confirming STR profiling and were mycoplasma tested every time new stabilates were made. Cells were screened utilizing a resazurin-based fluorescence assay (λex = 540 nm, λem = 590 nm) in a 384-well plate format. HepG2 cells (1 × 10^5 cells/mL) were incubated with the compound in a 10-point, 1 in 3 dilution series from a top concentration of 100 µM, for 72 h. After the 72 h incubation period, resazurin (0.27 mM in a cell culture medium) was added and the plates were incubated for a further 3–4 h before the fluorescent signal was measured using PHERAstar (BMG Labtech, Ortenberg, Germany). IC50 values were calculated from two independent experiments.

HepG2 hepatoma cells = experiment: HepG2 hepatotoxicity, resazurin assay; type: cell-based; conditions: 72 h, two independent experiments
Protocol: as §5

[5] = CBS247, strain CBS247.48, read-out: MIC, CBS247.48
[6] = strain MM55, read-out: MIC, MM55
[7] = strain Peru72012, read-out: MIC, Peru72012

N.N.[Cl][Pt][Cl] [Cisplatin, reference compound]
IC50 (SK-GT-4 EAC cells; 72 h): 2280 ± 140 nM
IC50 (FLO-1 EAC cells; 72 h): 1700 ± 1480 nM

O=C(Nc1ccc(S(F)(F)(F)(F)F)cc1)c1cc(Cl)ccc1O [Compound 2a, 5-Chloro-2-hydroxy-N-(4-pentafluorosulfanylphenyl)benzamide]
IC50 (SK-GT-4 EAC cells; SKGT4, 72 h): 1800 ± 170 nM
IC50 (FLO-1 EAC cells; FLO-1, 72 h): 1620 ± 550 nM
IC90 ([1]; Madurella mycetomatis, MM55STRAIN): 1900 ± 600 nM
IC50 [1]: 300 ± 100 nM
MIC (M. mycetomatis strains; [5]): 0.5 µM (≈ 0.187 µg/mL)
MIC (M. mycetomatis strains; strain I1, read-out: MIC, I1): 0.5 µM (≈ 0.187 µg/mL)
MIC (M. mycetomatis strains; strain I3, read-out: MIC, I3): 0.5 µM (≈ 0.187 µg/mL)
MIC (M. mycetomatis strains; strain I11, read-out: MIC, I11): 0.5 µM (≈ 0.187 µg/mL)
MIC (M. mycetomatis strains; [6]): 0.5 µM (≈ 0.187 µg/mL)
MIC (M. mycetomatis strains; strain P1, read-out: MIC, P1): 0.5 µM (≈ 0.187 µg/mL)
MIC (M. mycetomatis strains; [7]): 0.3 µM (≈ 0.112 µg/mL)
MIC (M. mycetomatis strains; strain SO1, read-out: MIC, SO1): 0.5 µM (≈ 0.187 µg/mL)
MIC50 (M. mycetomatis strains): 0.5 µM (≈ 0.187 µg/mL)
Toxicity to non-infected G. mellonella larvae [2]: not toxic
d10 AUC [3]: 445
d10 Survival ([3]; infected larvae): 26.7% and 26.67%
d10 Survival Corrected with Control ([3]; infected larvae): 13.33%
d10 ΔAUC [3]: 113.3
solubility kinetic at 24 h (Kinetic solubility; kinetic from dmso stock): 0.67 µM (≈ 0.25 µg/mL)
chromatographic logD (CHI logD): 3.9
half-life at 0.5 µM (Microsomal clearance): > 30 min
Microsomal Clearance (Microsomal clearance): 0.02 mL/min/mg Protein
IC50 at 72 h [4]: 2300 to 3000 nM
IC50 (HepG2 hepatoma cells): 2260 ± 310 nM

O=C(Nc1ccc(SC(F)(F)F)cc1)c1cc(Cl)ccc1O [Compound 2b, 5-Chloro-2-hydroxy-N-(4-trifluoromethylsulfanylphenyl)benzamide]
IC50 (SK-GT-4 EAC cells; 72 h): 2020 ± 140 nM
IC50 (FLO-1 EAC cells; 72 h): 2200 ± 360 nM
IC50 [1]: 200 ± 100 nM
IC90 [1]: 500 ± 600 nM
MIC (M. mycetomatis strains; [5]): 0.5 µM (≈ 0.174 µg/mL)
MIC (M. mycetomatis strains; strain I1, read-out: MIC, I1): 0.5 µM (≈ 0.174 µg/mL)
MIC (M. mycetomatis strains; strain I3, read-out: MIC, I3): 0.5 µM (≈ 0.174 µg/mL)
MIC (M. mycetomatis strains; strain I11, read-out: MIC, I11): 0.5 µM (≈ 0.174 µg/mL)
MIC (M. mycetomatis strains; [6]): 0.5 µM (≈ 0.174 µg/mL)
MIC (M. mycetomatis strains; strain P1, read-out: MIC, P1): 0.3 µM (≈ 0.104 µg/mL)
MIC (M. mycetomatis strains; [7]): 0.3 µM (≈ 0.104 µg/mL)
MIC (M. mycetomatis strains; strain SO1, read-out: MIC, SO1): 0.5 µM (≈ 0.174 µg/mL)
MIC50 (M. mycetomatis strains): 0.5 µM (≈ 0.174 µg/mL)
Toxicity to non-infected G. mellonella larvae [2]: not toxic
d10 AUC [3]: 451.7
Effect on survival between days three and six ([3]; infected larvae): considerable temporary effect
d10 Survival ([3]; infected larvae): no increased survival
d10 Survival Corrected with Control ([3]; infected larvae): −3.33%
d10 ΔAUC [3]: 120
Kinetic solubility (Kinetic solubility; 24 h): stability issues
chromatographic logD (CHI logD): 4.3
half-life at 0.5 µM (Microsomal clearance): 6.66 min
Microsomal Clearance (Microsomal clearance): 0.21 mL/min/mg Protein
IC50 at 72 h [4]: 2300 to 3000 nM
IC50 (HepG2 hepatoma cells): 2990 ± 110 nM
melting point: 200 to 201 °C
